These results are taken from patent US9242937B2, “Pharmaceutically active disubstituted pyridine derivatives” (Bayer Intellectual Property GmbH, priority 2011, dated 2016).

For assay [1], the target named is T1, CDK9 (Homo sapiens, UniProt P50750).
T1 construct: purchased Invitrogen
Put plainly: Lance Ultra KinaSelect Assay, CDK9. The assay is classed as biochemical. Conditions: ULight MBP substrate; cyclin partner not stated in Table 5; read-out: CDK9 LANCE assay (activity range), IC50. The method, then:
(§1) This protocol describes how the Lance Ultra KinaSelect Assay was performed to determine half maximal inhibitory concentration (IC50) of compounds of general formula (I) and CDK/Cyclin complexes. The principle behind this enzymatic assay is based upon the phosphorylation of the ULight-Peptide Substrat. It is detected by using a specific EU-labeled anti-phospho peptide antibody. The binding of the Eu-labeled anti-phospho peptide antibody to the phosphorylated ULight labeled peptide gives rise to a FRET-signal. Binding of an inhibitor to the kinase prevents phosphorylation of the ULight-MBP Substrat, resulting in a loss of FRET.
(§2) The compounds of general formula (I) summarized in Table 5 were diluted from a 10 mM DMSO stock solution 1:10 in a total volume of 15 μL DMSO. This compound predilution was then serial diluted 1:3 over 8 steps in DMSO and briefly spun down. Each compound solution was now diluted 1:20 in Enzymatic Buffer (HEPES: 50 mM, pH: 7.5; MgCl2: 10 mM; EGTA: 1 mM; DTT: 2 mM; Tween-20: 0.01%), mixed thoroughly and spun down. For every sample, 2 μL of the diluted compound were mixed with 6 μL CDK/Cyclin/Substrat solution and 2 μL ATP solution in a well of a small volume 384 well plate (Corning Incorporated, Corning, N.Y., USA; order no. 3673). The CDK/Cyclin was diluted to the appropriate concentration (see Table 3) and the ATP concentration was adjusted to its […] for the CDK/Cyclin, which was 3 μM for CDK2/Cyclin A, 20 μM for CDK1/Cyclin B1, 25 μM for CDK7/Cyclin H and CDK9/Cyclin T1, 55 μM for CDK6/Cyclin D3, 90 μM for CDK4/Cyclin D1 and 125 μM for CDK9/Cyclin K. For negative controls, in each well 2 μL of DMSO solution (1% final DMSO assay concentration) was mixed with 6 μL substrate solution (50 nM ULight MBP final assay concentration) and 2 μL ATP solution (appropriate final concentration see Table 3). For positive controls, in each well 2 μL of DMSO solution (1% final DMSO assay concentration) was mixed with 6 μL CDK/Cyclin/Substrat (appropriate final concentration see Table 3) and 2 μL Tracer ATP solution (appropriate final concentration see Table 3). Positive and negative controls were calculated from at least 8 different sample wells. The 384 well plates were mixed in a Teleshaker plate mixer (Beckman Coulter, Brea, Calif., USA) at 2000 rpm for 40 sec, and incubated for 1 h at room temperature. Before reading, 10 μL the detection buffer (Lance Detection Buffer 1×; EDTA: […]; Eu-Anti-P-MBP: see Table 3) was added. The FRET signal was measured at 340 nm excitation, 665 nm and 615 nm emission (for the kinase tracer and LanthaScreen Eu-AB, respectively) with an Envision spectrophotometer (Perkin Elmer, Waltham, Mass., USA) with 50 μs delay and 300 μs integration time. IC50 values were determined from the sigmoidal dose response curves with the software Quattro Workflow (Quattro GmbH, Munich, Germany).
On the technique in general: In TR-FRET formats the signal depends on donor and acceptor labels being close together.

Assay [2] has as its target T2, CDK9/Cyclin K (Homo sapiens, UniProt P50750).
T2 construct: purchased Invitrogen
Kind of assay: LanthaScreen Eu Kinase Binding Assay, CDK9/Cyclin K. Particulars: tracer 236, read-out: CDK9/Cyclin K (activity range), Kd. The method, then:
(§3) This protocol describes how the LanthaScreen Eu Kinase Binding Assay was performed to determine dissociation constants (Kd) of compounds of general formula (I) and CDK/Cyclin complexes. The principle behind this assay is based upon the binding and displacement of an Alexa Fluor 647-labeled tracer, which binds to the active site of kinases. Binding of the tracer to the kinase is detected using a Eu-labeled antibody. Simultaneous binding of both the tracer and antibody to the kinase gives rise to a FRET-signal. Binding of an inhibitor to the kinase competes for binding with the tracer, resulting in a loss of FRET.
(§4) The compounds of general formula (I) summarized in Table 1 were diluted from a 10 mM DMSO stock solution 1:10 in a total volume of 15 μL DMSO. This compound predilution was then serial diluted 1:3 over 8 steps in DMSO and briefly spun down. Each compound solution was now diluted 1:33.33 in kinase buffer (HEPES: 20 mM, pH: 8.0; MgCl2: 10 mM; DTT: 1 mM; Brij-35: 0.01%), mixed thoroughly and spun down. For every sample, 5 μL of the diluted compound were mixed with 5 μL tracer working solution (e.g. 60 nM tracer 236 in kinase buffer for CDK2/Cyclin A) and 5 μL CDK/Cyclin/Anti-GST-AB-working solution (e.g. 15 nM CDK2/Cyclin A, 1:250 dilution of Anti-GST-AB in kinase buffer) in a well of a small volume 384 well plate (Corning Incorporated, Corning, N.Y., USA; order no. 3673). The tracer concentration was adjusted to its dissociation constant (Kd) for the CDK/Cyclin, which was 30 nM for CDK2/Cyclin A, CDK7/Cyclin H and CDK9/Cyclin T1, 20 nM for CDK8/Cyclin C, and 35 nM for CDK9/Cyclin K. For negative controls, in each well 5 μL of DMSO working solution (3% DMSO diluted in kinase buffer) was mixed with 5 μL Anti-GST-AB working solution (e.g. 1:250 dilution of Anti-GST-AB in kinase buffer for CDK2/Cyclin A) and 5 μL Tracer working solution (e.g. 60 nM Tracer 236 in kinase buffer for CDK2/Cyclin A). For positive controls, in each well 5 μL of DMSO working solution (3% DMSO diluted in kinase buffer) was mixed with 5 μL CDK/Cyclin/Anti-GST-AB-working solution: (e.g. 15 nM CDK2/Cyclin A, 1:250 dilution of Anti-GST-AB in kinase buffer) and 5 μL Tracer working solution (e.g. 60 nM Tracer 236 in kinase buffer for CDK2/Cyclin A). Positive and negative controls were calculated from at least 8 different sample wells. The 384 well plates were mixed in a Teleshaker plate mixer (Beckman Coulter, Brea, Calif., USA) at 2000 rpm for 40 sec, and incubated for 1 h at room temperature before reading. The FRET signal was measured at 340 nm excitation, 665 nm and 615 nm emission (for the kinase tracer and LanthaScreen Eu-AB, respectively) with an Envision spectrophotometer (Perkin Elmer, Waltham, Mass., USA) with 50 μs delay and 300 μs integration time. Kd values were determined from the sigmoidal dose response curves with the software Quattro Workflow (Quattro GmbH, Munich, Germany).

Assay [3] deals with T3, CDK2/CyclinA (Homo sapiens, UniProt P24941).
T3 construct: purchased Proqinase
Put plainly: Lance Ultra KinaSelect Assay, CDK2. The class given is biochemical. Conditions: ULight MBP substrate, ATP 3 μM; read-out: CDK2 LANCE assay (activity range), IC50. The method, then: as §1, §2

The target of assay [4] is T4, CDK7/CyclinH/MAT1 (Homo sapiens, UniProt P50613).
T4 construct: purchased Carna Biosciences
T4 sequence (P50613 whole entry): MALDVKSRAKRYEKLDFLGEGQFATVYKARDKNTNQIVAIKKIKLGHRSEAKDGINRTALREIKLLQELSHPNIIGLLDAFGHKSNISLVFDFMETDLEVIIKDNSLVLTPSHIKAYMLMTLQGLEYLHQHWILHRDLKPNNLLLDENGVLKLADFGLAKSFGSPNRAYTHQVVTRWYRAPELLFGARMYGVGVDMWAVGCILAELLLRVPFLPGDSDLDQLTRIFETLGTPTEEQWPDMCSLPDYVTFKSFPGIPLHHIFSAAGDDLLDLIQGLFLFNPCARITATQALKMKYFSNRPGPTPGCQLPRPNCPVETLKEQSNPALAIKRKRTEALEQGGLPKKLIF
T4 sequence (P51946 whole entry partner): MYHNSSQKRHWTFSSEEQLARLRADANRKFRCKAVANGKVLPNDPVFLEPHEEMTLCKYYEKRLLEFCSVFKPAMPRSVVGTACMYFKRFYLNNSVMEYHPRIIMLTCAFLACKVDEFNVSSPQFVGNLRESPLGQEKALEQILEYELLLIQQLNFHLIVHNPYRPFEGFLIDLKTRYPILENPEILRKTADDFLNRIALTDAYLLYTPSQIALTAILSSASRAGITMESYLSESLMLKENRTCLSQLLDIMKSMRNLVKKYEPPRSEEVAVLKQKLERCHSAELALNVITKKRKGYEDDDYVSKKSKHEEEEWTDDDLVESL
T4 sequence (P51948 whole entry partner): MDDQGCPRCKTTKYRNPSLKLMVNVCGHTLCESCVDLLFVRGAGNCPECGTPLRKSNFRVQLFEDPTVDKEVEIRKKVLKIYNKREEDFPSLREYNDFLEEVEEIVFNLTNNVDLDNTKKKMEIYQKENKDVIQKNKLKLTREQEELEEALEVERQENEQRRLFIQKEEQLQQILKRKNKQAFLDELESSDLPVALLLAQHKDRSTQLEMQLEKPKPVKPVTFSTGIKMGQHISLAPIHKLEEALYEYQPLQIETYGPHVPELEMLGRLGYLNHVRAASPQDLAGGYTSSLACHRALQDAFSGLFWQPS
Kind of assay: LanthaScreen Eu Kinase Binding Assay, CDK7. Particulars: tracer 236, read-out: CDK7 (activity range), Kd. As to the method: as §3, §4

In assay [5] the target is T4, CDK7/CyclinH/MAT1. Kind of assay: Lance Ultra KinaSelect Assay, CDK7. The class given is biochemical. Conditions: ULight MBP substrate, ATP 25 μM; read-out: CDK7 LANCE assay (activity range), IC50. As to the method:
as §1, §2

Where only a bound is given, the exact number is not on record here.

T2 sequence (P50750 whole entry): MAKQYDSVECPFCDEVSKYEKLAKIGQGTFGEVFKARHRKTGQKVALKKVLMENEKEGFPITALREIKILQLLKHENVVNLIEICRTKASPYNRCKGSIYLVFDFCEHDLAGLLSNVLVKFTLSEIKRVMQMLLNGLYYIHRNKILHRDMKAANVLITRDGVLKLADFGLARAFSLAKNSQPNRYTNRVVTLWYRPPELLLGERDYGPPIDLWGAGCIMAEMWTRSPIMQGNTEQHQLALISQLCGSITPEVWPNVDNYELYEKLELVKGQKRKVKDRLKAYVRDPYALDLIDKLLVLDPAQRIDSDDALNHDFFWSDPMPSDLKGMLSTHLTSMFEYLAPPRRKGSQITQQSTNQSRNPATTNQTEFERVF
T2 sequence (O75909 1-357 isoform O75909-1 partner): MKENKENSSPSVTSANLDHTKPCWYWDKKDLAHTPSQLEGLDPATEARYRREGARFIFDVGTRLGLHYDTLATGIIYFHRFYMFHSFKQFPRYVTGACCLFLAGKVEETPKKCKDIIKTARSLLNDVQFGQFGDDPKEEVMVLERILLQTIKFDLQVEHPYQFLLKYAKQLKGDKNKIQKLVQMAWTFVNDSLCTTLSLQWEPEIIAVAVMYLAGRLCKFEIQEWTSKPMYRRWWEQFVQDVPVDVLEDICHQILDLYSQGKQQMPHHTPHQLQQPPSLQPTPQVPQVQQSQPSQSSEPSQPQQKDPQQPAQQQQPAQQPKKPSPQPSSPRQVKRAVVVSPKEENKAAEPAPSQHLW
T1 sequence (P50750 whole entry): as the sequence (P50750 whole entry) above

What is called IC50 is the concentration needed to halve the response being measured. On to `COc1ccccc1-c1ccnc(Nc2ccccc2)c1` [Compound B1, 4-(2-Methoxyphenyl)-N-phenylpyridin-2-amine], for which the IC50 in assay [1] was in the range of 1000 to 10000 nM.

Regarding `COc1ccccc1-c1ccnc(Nc2cccc([N+](=O)[O-])c2)c1` [Compound C1, 4-(2-Methoxyphenyl)-N-(3-nitrophenyl)pyridin-2-amine], in assay [2], the Kd lay in the range of 100 to 1000 nM. Also, the 50% inhibitory concentration (IC50) in assay [1] fell in the range of 1000 to 10000 nM.

As for `COc1ccccc1-c1ccnc(Nc2cccc(S(N)(=O)=O)c2)c1` [Compound D1, 3-[(4-(2-Methoxyphenyl)pyridin-2-yl)amino]benzenesulfonamide], the IC50 in assay [3] was 100 to 1000 nM; in assay [5] it was above 10000 nM; in assay [1], below 100 nM. Besides, the Kd in assay [4] is above 10000 nM; in assay [2] it was below 100 nM.

In the case of `COc1ccccc1-c1ccnc(Nc2ccc(S(N)(=O)=O)cc2)c1` [Compound E1, 4-[(4-(2-Methoxyphenyl)pyridin-2-yl)amino]benzenesulfonamide], the IC50 in assay [3] is below 100 nM; in assay [5], above 10000 nM; in assay [1], 100 to 1000 nM. The results for the Kd in assay [4] and in assay [2] were above 10000 nM and below 100 nM, respectively.

`COc1ccccc1-c1ccnc(Nc2cccc(S(C)(=O)=O)c2)c1` [Compound F1, 4-(2-Methoxyphenyl)-N-(3-(methylsulfonyl)phenyl)pyridin-2-amine]: the Kd in assay [2] is below 100 nM. Also, the IC50 in assay [1] is below 100 nM.

Consider `COc1cc(F)ccc1-c1ccnc(Nc2cccc(CS(N)(=O)=O)c2)c1` [Compound G1, [3-((4-(4-Fluoro-2-methoxyphenyl)pyridin-2-yl)amino)phenyl]-methanesulfonamide], for which the results for the IC50 in assay [3], in assay [5] and in assay [1] were 1000 to 10000 nM, above 10000 nM and below 100 nM, respectively. In addition, the Kd in assay [4] was above 10000 nM; in assay [2] it was below 100 nM.

`COc1cc(F)ccc1-c1ccnc(Nc2cccc(CS(=O)(=O)N(C)C)c2)c1` [Compound G3, 1-[3-((4-(4-Fluoro-2-methoxyphenyl)pyridin-2-yl)amino)phenyl]-N,N-dimethylmethanesulfonamide]: the IC50 in assay [3] was 1000 to 10000 nM; in assay [5] it was above 10000 nM; in assay [1] it was below 100 nM. For the same compound, the Kd in assay [4] is above 10000 nM.

In the case of `COc1cc(F)ccc1-c1ccnc(Nc2cccc(NS(C)(=O)=O)c2)c1` [Compound J1, N-[3-((4-(4-Fluoro-2-methoxyphenyl)pyridin-2-yl)amino)phenyl]-methanesulfonamide], the IC50 is 100 to 1000 nM in assay [3], above 10000 nM in assay [5] and below 100 nM in assay [1]. Moreover, in assay [4], the Kd is 1000 to 10000 nM.

With `COc1cc(F)ccc1-c1ccnc(Nc2cccc(NC(C)=O)c2)c1` [Compound J2, N-[3-((4-(4-Fluoro-2-methoxyphenyl)pyridin-2-yl)amino)phenyl]-acetamide], the IC50 in assay [3] was 100 to 1000 nM; in assay [5], above 10000 nM; in assay [1], below 100 nM. Also, the Kd in assay [4] was above 10000 nM.

Turning to `CCCNS(=O)(=O)Cc1cccc(Nc2cc(-c3ccc(F)cc3OC)ccn2)c1` [Compound K1, 1-[3-((4-(4-Fluoro-2-methoxyphenyl)pyridin-2-yl)amino)phenyl]-N-propylmethanesulfonamide], the IC50 is 1000 to 10000 nM in assay [3], above 10000 nM in assay [5] and 100 to 1000 nM in assay [1]. Also, the Kd in assay [4] was above 10000 nM.
